# “And” between values parts separate entries of the source, which are not always exact repeats. Equal entries are not always repeated.
# Assays:
# zebra mussels = settings: in vivo; cited from earlier work
# adult mussels = system: adult mussels; parameters: species or system zebra mussels; settings: in vivo
smiles,measurement,setting,value
"OCl [NaOCl, sodium hypochlorite]",Mortality rate,zebra mussels,≤ 10%
same,Day of treatment on which complete mortality was observed,adult mussels,18 days and 23 days
[K+].[O]=[Mn](=[O])(=[O])[O-] [KMnO],Mortality rate,zebra mussels,≤ 10%

# From patent US9420796B2 (priority 2013, dated 2016)
